These results are taken from US20190216956A1, “COMPOSITIONS FOR RADIOTHERAPY AND USES THEREOF” (priority 2016, published 2019).

Values joined by “and” are separate entries in the source; they are usually repeats but may differ in a detail not shown here. Identical values can stand only once.

Data set [1] relates to NCI-28H cells. Put plainly: Cytotoxicity assay (MTS) of NCI-28H cells: carboplatin, mitomycin, gemcitabine, talc, talc bound to drugs (Example 22). Conditions: for % survival from untreated cells: cells + drug, gemcitabine / Average reading: cells + drug, gemcitabine / % survival from untreated cells: cells + drug, carboplatin / Average reading: cells + drug, carboplatin: NCI-28H cells; for Average reading: cells + drug, gemcitabine / Average reading: cells + drug, carboplatin: absorbance 490 nm. The protocol:
Read absorbance (MTS assay) and calculate cells survive rate. Compare survival rate
1. Set up 3 cytotoxicity plates for tomorrow experiment: trypsinize NCI-28H cells (T-75 flask, passage 12): • Remove old medium, wash cells with 7 ml DPBS, remove DPBS, add 2 ml trypsin, incubate plates for 1-2′, when cells detached add 6 ml fresh medium, mix cells and medium. • Count cells under the microscope using the glass slide. […] If we need 200 wells, in each well will be 5,000 cells in 0.1 ml; so total we need 1,000,000 cells in 20 ml.
2. […] Final solution is 500 μL of 500 μM carboplatin.
4. […] Final solution is 500 μL of 200 μM Gemcitabine.
(§1) 1. Centrifuge tubes at 3200 rpm for 3 min. Take out supernatant.
3. Add 100 μL of each 8 preparations of diluted carboplatin (step 1 and 2) to the proper wells according to a plate layout.
4. Add 100 μL of each 8 preparations of diluted Gemcitabine (step 1, 2, 3) to the proper wells according to a plate layout.
6. Check the plate and start incubation at 37° C./5% CO2.
3. Wash all cells 1×300 μL DPBS, remove final wash.

In data set [2] the test system is NCI-28H cells. In words: Cytotoxicity assay (MTS) of NCI-28H cells: doxorubicin, cisplatin, paclitaxel, talc, talc bound to drugs (Example 21). Format: cell-based. Conditions: for % survival from untreated by DOX cells / Average reading: cells + cisplatin / % survival from untreated cells (cells + cisplatin) / % survival (cells + drug) / Average readings: cells + drug / AVERAGE: cells + DOX: NCI-28H cells; for Average reading: cells + cisplatin / Average readings: cells + drug / AVERAGE: cells + DOX: absorbance 490 nm. On the procedure: Read absorbance (MTS assay) and calculate cells survival rate. Compare survival rate between each formulation.
1. Set up 3 cytotoxicity plates for Day 2 experiment: trypsinize NCI-28H cells (T-75 flask, passage 12): • Remove old medium, wash cells with 7 ml DPBS, remove DPBS, add 2 ml trypsin, incubate plates for 1-2′, when cells detached add 6 ml fresh medium, mix cells and medium. • Count cells under the microscope using the glass slide. […] If we need 200 wells, in each well will be 5,000 cells in 0.1 ml; so total we need 1,000,000 cells in 20 ml. […] In 50 ml Falcon tube, combine 16.6 ml fresh medium and 3.4 ml cells. Gently mix.
3. […] Final solution is 500 μL of 20 μM.
as §1
6. Check the plate and start incubation at 37° C./5% CO2
3. Wash cells 1×300 μL media, remove final wash.

Another data set has as its system NCI-2052H cells. In words: Cytotoxicity assay (MTS) of NCI-2052H cells: bleomycin, mitomycin, doxorubicin, paclitaxel, talc, talc bound to drugs (Example 23). It counts as cell-based. The settings on record: for Average reading: cells + drug, paclitaxel: absorbance 490 nm.

`Nc1ccn([C@@H]2O[C@H](CO)[C@@H](O)C2(F)F)c(=O)n1` [gemcitabine]: the “cytotoxic effect on NCI-28H cells (comparison)” value in the data set on NCI-28H cells [1] is listed as “clear cytotoxic effect”. For the same compound, the “% survival from untreated cells: cells + drug, gemcitabine” value in the data set with NCI-28H cells [1] (gemcitabine 0.0026 μM) is 114.61%; in the data set with NCI-28H cells [1] (gemcitabine 0.013 μM), 107.85%; in the data set on NCI-28H cells [1] (gemcitabine 0.064 μM), 80.60%; in the data set with NCI-28H cells [1] (gemcitabine 8 μM), 56.58%; with NCI-28H cells [1] (gemcitabine 40 μM), 60.09%; in the data set with NCI-28H cells [1] (gemcitabine 200 μM), 52.70%. In addition, the “Average reading: cells + drug, gemcitabine” value in the data set on NCI-28H cells [1] (gemcitabine 0.0026 μM) is reported as 2.034; in the data set on NCI-28H cells [1] (gemcitabine 0.013 μM) it was 1.914; in the data set on NCI-28H cells [1] (gemcitabine 0.064 μM), 1.43; with NCI-28H cells [1] (gemcitabine 8 μM), 1.004; in the data set with NCI-28H cells [1] (gemcitabine 40 μM), 1.0663; in the data set with NCI-28H cells [1] (gemcitabine 200 μM) it was 0.9352.
`COc1cccc2c1C(=O)c1c(O)c3c(c(O)c1C2=O)C[C@@](O)(C(=O)CO)C[C@@H]3O[C@H]1C[C@H](N)[C@H](O)[C@H](C)O1` [Dox]: the “% survival from untreated by DOX cells” value in the data set on NCI-28H cells [2] (Dox 0.064 nM) stood at 86.3%; with NCI-28H cells [2] (Dox 8 nM) it was 83.4%; with NCI-28H cells [2] (Dox 40 nM), 77.4%; in the data set on NCI-28H cells [2] (Dox 200 nM) it was 65.0%; with NCI-28H cells [2] (Dox 1000 nM), 48.6%; in the data set with NCI-28H cells [2] (Dox 5000 nM), 46.2%.
`N.N.[Cl][Pt][Cl]` [cisplatin]: the “Average reading: cells + cisplatin” value came to 1.37 in the data set with NCI-28H cells [2] (Cisplatin 0.0013 μM); 1.19 with NCI-28H cells [2] (Cisplatin 0.0064 μM); 1.23 with NCI-28H cells [2] (Cisplatin 0.8 μM); 1.18 in the data set with NCI-28H cells [2] (Cisplatin 4 μM); 0.48 with NCI-28H cells [2] (Cisplatin 20 μM); 0.59 in the data set on NCI-28H cells [2] (Cisplatin 100 μM). Also, the “% survival from untreated cells (cells + cisplatin)” value with NCI-28H cells [2] (cisplatin 0.0013 (μM per Table 64)) came to 91.07%; with NCI-28H cells [2] (cisplatin 0.0064 (μM per Table 64)), 79.21%; in the data set on NCI-28H cells [2] (cisplatin 0.032 (μM per Table 64)), 76.66%; with NCI-28H cells [2] (cisplatin 0.16 (μM per Table 64)), 79.74%; in the data set on NCI-28H cells [2] (cisplatin 0.8 (μM per Table 64)) it was 82.09%; in the data set on NCI-28H cells [2] (cisplatin 4 (μM per Table 64)) it was 78.41%. The “% survival from untreated cells (cells + cisplatin)” value worked out at 31.99% in the data set on NCI-28H cells [2] (cisplatin 20 (μM per Table 64)) and 39.35% in the data set on NCI-28H cells [2] (cisplatin 100 (μM per Table 64)).
Regarding `CC(=O)O[C@H]1C(=O)[C@@]2(C)[C@H]([C@H](OC(=O)c3ccccc3)[C@]3(O)C[C@H](OC(=O)[C@H](O)[C@@H](NC(=O)c4ccccc4)c4ccccc4)C(C)=C1C3(C)C)[C@]1(OC(C)=O)CO[C@@H]1C[C@@H]2O` [Paclitaxel], the “Average reading: cells + drug, paclitaxel” value in the data set with NCI-2052H cells (Paclitaxel 0.256 nM) is 1.4273; in the data set on NCI-2052H cells (Paclitaxel 6.4 nM), 1.54; in the data set with NCI-2052H cells (Paclitaxel 32 nM), 0.5818; with NCI-2052H cells (Paclitaxel 160 nM) it was 0.4361; with NCI-2052H cells (Paclitaxel 800 nM), 0.4326; in the data set with NCI-2052H cells (Paclitaxel 4000 nM), 0.553. Besides, the “Average reading: cells + drug, paclitaxel” value with NCI-2052H cells (Paclitaxel 20,000 nM) turned out to be 0.1647. Also, the “% survival from untreated cells” value in the data set with NCI-2052H cells (paclitaxel 0.256 (nM per Table 97)) was 83.84%; in the data set with NCI-2052H cells (paclitaxel 1.28 (nM per Table 97)), 93.24%; with NCI-2052H cells (paclitaxel 6.4 (nM per Table 97)), 90.43%; with NCI-2052H cells (paclitaxel 32 (nM per Table 97)) it was 34.17%; with NCI-2052H cells (paclitaxel 160 (nM per Table 97)), 25.61%; with NCI-2052H cells (paclitaxel 800 (nM per Table 97)) it was 25.41%. Moreover, the “% survival from untreated cells” value in the data set on NCI-2052H cells (paclitaxel 4000 (nM per Table 97)) came out at 32.48%; with NCI-2052H cells (paclitaxel 20,000 (nM per Table 97)), 9.67%. Moreover, the “% survival (cells + drug)” value was found to be 102.50% with NCI-28H cells [2] (Paclitaxel 0.13 nM); 86.98% in the data set with NCI-28H cells [2] (Paclitaxel 0.68 nM); 89.85% in the data set with NCI-28H cells [2] (Paclitaxel 3.5 nM); 84.47% with NCI-28H cells [2] (Paclitaxel 16 nM); 71.81% in the data set with NCI-28H cells [2] (Paclitaxel 80 nM); 66.39% in the data set on NCI-28H cells [2] (Paclitaxel 400 nM). The “% survival (cells + drug)” value with NCI-28H cells [2] (Paclitaxel 2000 nM) is 62.43%; in the data set with NCI-28H cells [2] (Paclitaxel 10,000 nM) it was 60.71%. Besides, the “Average readings: cells + drug” value in the data set with NCI-28H cells [2] (Paclitaxel 0.13 nM) is on record as 1.56; in the data set with NCI-28H cells [2] (Paclitaxel 0.68 nM), 1.33; in the data set on NCI-28H cells [2] (Paclitaxel 3.5 nM), 1.37; in the data set on NCI-28H cells [2] (Paclitaxel 16 nM), 1.29; in the data set on NCI-28H cells [2] (Paclitaxel 80 nM) it was 1.10.
Consider `N.N.O=C([O-])C1(C(=O)[O-])CCC1.[Pt+2]` [carboplatin], for which the “% survival from untreated cells: cells + drug, carboplatin” value with NCI-28H cells [1] (carboplatin 0.006 μM) was 90.84% and 94.28%; in the data set with NCI-28H cells [1] (carboplatin 0.8 μM) it was 85.98% and 87.53%; with NCI-28H cells [1] (carboplatin 4 μM), 96.93% and 93.62%; in the data set with NCI-28H cells [1] (carboplatin 20 μM), 104.81% and 99.20%; in the data set on NCI-28H cells [1] (carboplatin 100 μM) it was 83.82% and 79.53%; with NCI-28H cells [1] (carboplatin 500 μM) it was 37.38% and 35.14%. For the same compound, the “Average reading: cells + drug, carboplatin” value in the data set with NCI-28H cells [1] (carboplatin 0.006 μM) is recorded as 1.504; with NCI-28H cells [1] (carboplatin 0.8 μM), 1.4238; with NCI-28H cells [1] (carboplatin 4 μM), 1.605; with NCI-28H cells [1] (carboplatin 20 μM), 1.7355; with NCI-28H cells [1] (carboplatin 100 μM), 1.388; in the data set on NCI-28H cells [1] (carboplatin 500 μM) it was 0.6189.
For the compound `COc1cccc2c1C(=O)c1c(O)c3c(c(O)c1C2=O)C[C@@](O)(C(=O)CO)C[C@@H]3O[C@H]1C[C@H](N)[C@H](O)[C@H](C)O1` [DOX], the “% survival NCI-28H cells after different treatment (compare to untreated cells)” value with NCI-28H cells [2] (125 nM DOX) worked out at 70%. The “AVERAGE: cells + DOX” value was 1.18 in the data set on NCI-28H cells [2] (DOX 0.000064 μM), 0.89 in the data set on NCI-28H cells [2] (DOX 0.2 μM), 0.67 in the data set with NCI-28H cells [2] (DOX 1 μM) and 0.63 with NCI-28H cells [2] (DOX 5 μM).
As for talc, the “cytotoxic effect on NCI-28H cells (comparison)” value in the data set on NCI-28H cells [1] was “clear cytotoxic effect”.
